Test results from patent US11078192B2, “Aromatic acetylene or aromatic ethylene compound, intermediate, preparation method, pharmaceutical composition and use thereof” (GUANGZHOU MAXINOVEL PHARMACEUTICALS CO., LTD., priority 2016, dated 2021).

Target: PD-1/PD-L1 (Homo sapiens (Human), UniProt Q9NZQ7)
Experiment: Homogeneous Time-Resolved Fluorescence (HTRF) binding assay
Conditions: CisBio kit #64CUS000C-1, read-out: IC50 of compounds binding to PD-1/PD-L1
Protocol: Homogeneous Time-Resolved Fluorescence (HTRF) binding assay was used to determine the binding activity of the compound of the present invention to PD-1/PD-L1.
The purchased kit (CisBio, #64CUS000C-1) contained reagents required for assays such as PD-1, PD-L1, anti-tag1-Eu, Anti-tag2-XL665, Dilute Buffer, and Detection Buffer.
1. The compound was formulated to 10 concentrations with a 3-fold gradient with 100% DMSO.
2. The solution of the compound in DMSO was added to Dilute Buffer, mixed thoroughly, then transferred to a 96-well plate.
3. PD-L1 was diluted with Dilute Buffer, then added to the above 96-well plate.
4. PD-1 was diluted with Dilute Buffer and added to the above 96-well plate, which was then incubated at room temperature for 30 minutes.
5. A portion of anti-tag1-Eu and a portion of anti-tag2-XL665 were added to Detection Buffer, mixed thoroughly and transferred to the above 96-well plate.
6. The mixture in the above 96-well plate was incubated at room temperature for 1 to 24 hours.
7. HTRF values were read with Envision.

Chain of PD-1/PD-L1 (Q9NZQ7 19-238): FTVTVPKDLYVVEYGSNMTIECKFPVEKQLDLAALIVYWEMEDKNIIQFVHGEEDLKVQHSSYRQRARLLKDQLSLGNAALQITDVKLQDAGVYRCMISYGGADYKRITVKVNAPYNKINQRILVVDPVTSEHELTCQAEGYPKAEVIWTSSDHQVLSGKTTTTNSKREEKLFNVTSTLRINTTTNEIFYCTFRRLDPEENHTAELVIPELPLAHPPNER

Row | IC50 | Compound
1 | 815 nM | COC(=O)c1cccc(-c2cccc(/C=C/c3cc(OC)c(CNC(C)(CO)C(=O)O)c(OC)c3)c2C)c1 (centres unmarked) [Compound 51, (E)-2-(2,6-Dimethoxy-4-(2-(3′-methoxycarbonyl-2-methylbiphenyl-3-yl)vinyl)benzylamino)-3-hydroxy-2-methylpropionic Acid]
2 | > 10000 nM | COc1cc(/C=C/c2cccc(-c3cccc(CO)c3)c2C)cc(OC)c1CNC(C)(CO)C(=O)O (centres unmarked) [Compound 52, (E)-2-(2,6-Dimethoxy-4-(2-(3′-hydroxymethyl-2-methylbiphenyl-3-yl)vinyl)benzylamino)-3-hydroxy-2-methylpropionic Acid]
3 | > 10000 nM | COc1cc(/C=C/c2cccc(-c3ccccc3)c2C)cc(OC)c1CNc1cccc(O)c1C(=O)O [Compound 53, (E)-2-(2,6-Dimethoxy-4-(2-(2-methylbiphenyl-3-yl)vinyl)benzylamino)-6-hydroxybenzoic Acid]
4 | > 10000 nM | COc1ccc(-c2cccc(/C=C/c3cc(OC)c(CNc4cccc(O)c4C(=O)O)c(OC)c3)c2C)cc1 [Compound 54, (E)-2-(2,6-Dimethoxy-4-(2-(4′-methoxy-2-methylbiphenyl-3-yl)vinyl)benzylamino)-6-hydroxybenzoic Acid]
5 | 4500 nM | COc1cc(/C=C/c2cccc(-c3ccc(C(N)=O)cc3)c2C)cc(OC)c1CNc1cccc(O)c1C(=O)O [Compound 55, (E)-2-(2,6-Dimethoxy-4-(2-(4′-carbamoyl-2-methylbiphenyl-3-yl)vinyl)benzylamino)-6-hydroxy-benzoic Acid]
6 | 100 nM | COc1cc(/C=C/c2cccc(-c3ccc4c(c3)OCCO4)c2C)cc(OC)c1CNC(CO)C(=O)O (centres unmarked) [Compound 56, (E)-2-(4-(3-(2,3-Dihydrobenzo[b][1,4]dioxin-6-yl)-2-methylstyryl)-2,6-dimethoxybenzylamino)-3-hydroxypropanoic Acid]
7 | 70 nM | COc1cc(/C=C/c2cccc(-c3ccc4c(c3)OCCO4)c2C)cc(OC)c1CNC(C)(CO)C(=O)O (centres unmarked) [Compound 57, (E)-2-(4-(3-(2,3-Dihydrobenzo[b][1,4]dioxin-6-yl)-2-methylstyryl)-2,6-dimethoxybenzylamino)-3-hydroxy-2-methylpropanoic Acid]
8 | > 10000 nM | COc1cc(/C=C/c2cccc(-c3ccccc3)c2C)cc(OC)c1CNc1ccc(C(=O)O)c(O)c1 [Compound 58, (E)-4-(2,6-Dimethoxy-4-(2-(2-methylbiphenyl-3-yl)vinyl)benzylamino)-2-hydroxybenzoic Acid]
9 | > 10000 nM | COc1cc(/C=C/c2cccc(-c3ccccc3)c2C)cc(OC)c1CNc1ccc(O)c(C(=O)O)c1 [Compound 59, (E)-5-(2,6-Dimethoxy-4-(2-(2-methylbiphenyl-3-yl)vinyl)benzylamino)-2-hydroxybenzoic Acid]
10 | > 10000 nM | COc1cc(N2C=CCN2c2cccc(-c3ccccc3)c2C)cc(OC)c1CNC(CO)C(=O)O (centres unmarked) [Compound 60, 2-(2,6-Dimethoxy-4-(2-(2-methylbiphenyl-3-yl)-1H-pyrazol-1-yl)benzylamino)-3-hydroxypropanoic Acid]
11 | > 10000 nM | COc1cc(/C=C/c2cccc(-c3cnn(C)c3)c2C)cc(OC)c1CN[C@@H](CO)C(=O)O [Compound 61]
12 | 120 nM | COc1cc(/C=C/c2cccc(-c3ccc4c(c3)OCCO4)c2C)ccc1CN[C@@H](CO)C(=O)O [Compound 62, (S,E)-2-(4-(3-(2,3-Dihydrobenzo[b][1,4]dioxin-6-yl)-2-methylstyryl)-2-methoxybenzylamino)-3-hydroxypropanoic Acid]
13 | 3900 nM | COc1cc(/C=C/c2cncc(-c3ccccc3)c2C)cc(OC)c1CN[C@@H](CO)C(=O)O [Compound 63, (S,E)-2-(2,6-dimethoxy-4-(2-(4-methyl-5-phenylpyridin-3-yl)vinyl)benzylamino)-3-hydroxypropanoic Acid]
14 | 4200 nM | COc1cc(/C=C/c2cncc(-c3ccc4c(c3)OCCO4)c2C)cc(OC)c1CN[C@@H](CO)C(=O)O [Compound 64, (S,E)-2-(4-(2-(5-(2,3-Dihydrobenzo[b][1,4]dioxin-6-yl)-4-methylpyridin-3-yl)vinyl)-2,6-dimethoxybenzylamino)-3-hydroxypropanoic Acid]
15 | 2000 nM | COc1cc(/C=C/c2cncc(-c3ccccc3)c2C)cc(OC)c1CNC(C)(CO)C(=O)O (centres unmarked) [Compound 65, (E)-2-(2,6-Dimethoxy-4-(2-(4-methyl-5-phenylpyridin-3-yl)vinyl)benzylamino)-3-hydroxy-2-methylpropionic Acid]
16 | 2900 nM | COc1cc(/C=C/c2cncc(-c3ccc4c(c3)OCCO4)c2C)cc(OC)c1CNC(C)(CO)C(=O)O (centres unmarked) [Compound 66, (E)-2-(4-(2-(5-(2,3-Dihydrobenzo[b][1,4]dioxin-6-yl)-4-methylpyridin-3-yl)vinyl)-2,6-dimethoxybenzylamino)-3-hydroxy-2-methylpropanoic Acid]
17 | 2400 nM | Cc1c(/C=C/c2cc(CN3CCC[C@H]3CO)ccc2C(F)(F)F)cccc1-c1ccc2c(c1)OCCO2 [Compound 67, (S,E)-(1-(3-(3-(2,3-Dihydrobenzo[b][1,4]dioxin-6-yl)-2-methylstyryl)-4-(trifluoromethyl)benzyl)pyrrolidin-2-yl)methanol]
18 | 36 nM | Cc1cc(CNC(CO)C(=O)O)cnc1/C=C/c1cccc(-c2ccc3c(c2)OCCO3)c1C (centres unmarked) [Compound 69, (E)-2-((6-(3-(2,3-Dihydrobenzo[b][1,4]dioxin-6-yl)-2-methylstyryl)-5-methylpyridin-3-yl)methylamino)-3-hydroxypropanoic Acid]
19 | 480 nM | (S,E)-2-(3-Chloro-4-(2-(2-methylbiphenyl-3-yl)vinyl)benzylamino)-3-hydroxypropanamide [Compound 33]

Row | Compound | IC50
20 | (R,E)-2-(3-Chloro-4-(2-(2-methylbiphenyl-3-yl)vinyl)benzylamino)-3-hydroxypropionamide [Compound 34] | 340 nM
